Key:
IL-4 = experiment: Functional Th2-blocking activity: IL-4 expression in primary human Th2 cells (intracellular flow cytometry); assay type: cell-based; details: primary human CD4+ Th2 cells; for % Normalized Reduction of Cytokine Expression From Baseline in CD4+ T Cells IL-4: normalized against vehicle control (water), 3 days co-culture, PMA/ionomycin 6 hours; for Expression of Cytokine following Stimulation (% X Positive among CD4+ T cells) IL-4: 3 days co-culture with compound, PMA/ionomycin stimulation 6 hours
Text: (§1) To produce T helper 2 (Th2) cells, peripheral blood mononuclear cells (PBMCs) were harvested from healthy donor leukopaks using Ficoll gradients. Naive CD4+ T cells were further isolated, then activated using TransAct or Dynabeads (depending on the donor). CD4+ T cells were activated for two days in the presence of low dose IL-2 (30 IU/mL) in X-VIVO-15 media containing 5% human AB serum (activation cycle). On the second day, the media was exchanged and supplemented with interleukin 4 (IL-4) (20 ng/mL), anti-IFN-gamma antibody (1 μg/mL), and interleukin 2 (IL-2) (rest cycle). The cells were cultured for an additional five days then evaluated for Prostaglandin D2 receptor 2 (DP2 or CRTH2) expression and IL-4 and interleukin 13 (IL-13) expression following phorbol myristate acetate (PMA)/ionomycin stimulation. If the expression of CRTH2 was >50%, the cells were frozen and used in Th2 IL-4/IL-13 bioactivity assays. If the expression of CRTH2 <50%, then the cells were restimulated using TransAct (or Dynabeads) and maintained on similar cycles of activation (2 days) and rest (5 days), until the expression of CRTH2 exceeded 50%. Typically, no more than 4 cycles are needed before the Th2 cells may be harvested and frozen.
(§2) For testing the ability of a compound or salt of the present disclosure to reduce the expression of IL-4 and IL-13 was tested in primary human Th2 cells, the abovementioned cells were thawed, then cultured for one day in IL-2 containing media. The Th2 cells were treated with compounds added at varying concentrations for three days, after which, the cells were washed, and stimulated with PMA/ionomycin for 6 hrs prior to readabout via intracellular flow cytometry.
(§3) The ability of a compound or salt of the present disclosure to reduce the expression of IL-4 and IL-13 was tested in primary human Th2 cells. Naive, primary human CD4+ T cells were isolated from healthy donors and differentiated into Th2 cells using a combination of IL-4 cytokine and anti-IFN-gamma antibody, based on a modified protocol from Scott et al (Activation of Th2 cells downregulates CRTh2 through an NFAT1 mediated mechanism. PLoS One. 2018 Jul. 3; 13(7):e0199156). Th2 cells were CRTH2+ and expressed IL-4 and IL-13 following PMA/ionomycin stimulation. Prior to PMA/ionomycin stimulation, Th2 cells were co-cultured with a compound or salt of the present disclosure for 3 days and then stimulated for 6 hours. Intracellular flow cytometry was performed to investigate the expression of IL-4 and IL-13 among stimulated CD4+ Th2 cells. The compound or salt was evaluated across a 2-log concentration range. Th2 cells were cultured in X-VIVO-15 media with human AB serum and supplemented with low dose IL-2 (30 IU/mL). The antibody panel that was used is listed below. All antibodies were obtained from Biolegend.
(§4) Description of Calculation for: (1) Expression of Cytokine following Stimulation (% X Positive among CD4+ T cells), and (2) % Normalized Reduction of Cytokine Expression From Baseline in CD4+ T Cells
(§5) The expression of IL-4 and IL-13 was measured based on positive gated fractions among CD4+ Th2 cells. The number is expressed as a positive percentage, determined based on the fluorescence-minus-one (FMO) control. The max percent is 100%. The normalized reduction value uses the vehicle control (water) to normalize against using the following percent change formula. (Cmpd: compound)

IL-13 = experiment: Functional Th2-blocking activity: IL-13 expression in primary human Th2 cells (intracellular flow cytometry); assay type: cell-based; details: for Expression of Cytokine following Stimulation (% X Positive among CD4+ T cells) IL-13: 3 days co-culture with compound, PMA/ionomycin stimulation 6 hours; for % Normalized Reduction of Cytokine Expression From Baseline in CD4+ T Cells IL-13: normalized against vehicle control (water), 3 days co-culture, PMA/ionomycin 6 hours
Text: as §1, §2, §3, §4, §5

Structure (SMILES) | % Normalized Reduction of Cytokine Expression From Baseline in CD4+ T Cells IL-4 (IL-4) | Expression of Cytokine following Stimulation (% X Positive among CD4+ T cells) IL-4 (IL-4) | Expression of Cytokine following Stimulation (% X Positive among CD4+ T cells) IL-13 (IL-13) | % Normalized Reduction of Cytokine Expression From Baseline in CD4+ T Cells IL-13 (IL-13)
O=C(C1CCc2cn[nH]c2C1)N1C[C@H]2CCC[C@@]2(c2nc(-c3ccccc3)no2)C1 (stereo in doubt) [IV-1, 6-[(3aS,6aS)-3a-(3-phenyl-1,2,4-oxadiazol-5-yl)-octahydrocyclopenta[c]pyrrole-2-carbonyl]-4,5,6,7-tetrahydro-1H-indazole] | C (C represents 20% to less than 25%) | B (B represents 30% to less than 35%) | C (C represents 14% to less than 18%) | C (C represents 40% to less than 50%)
O=C1CCC(N2Cc3c(OCC(=O)N4CCCC(c5ccccn5)C4)cccc3C2=O)C(=O)N1 (stereo not drawn) [Compound V-2, 3-(1-oxo-4-{2-oxo-2-[3-(pyridin-2-yl)piperidin-1-yl]ethoxy}-2,3-dihydro-1H-isoindol-2-yl)piperidine-2,6-dione] | D (D represents 25% or greater) | A (A represents 0% to less than 30%) | B (B represents 10% to less than 14%) | D (D represents 50% or greater)
O=C(Nc1cccc(-c2ccc3nnc(-c4ccncc4)n3n2)c1)c1ccc(Cl)nc1 [III-2, 6-chloro-N-{3-[3-(pyridin-4-yl)-[1,2,4]triazolo[4,3-b]pyridazin-6-yl]phenyl}pyridine-3-carboxamide] | C (C represents 20% to less than 25%) | B (B represents 30% to less than 35%) | C (C represents 14% to less than 18%) | C (C represents 40% to less than 50%)
CCNC(=O)COc1cccc(NC(=O)c2sccc2-n2c(C)ccc2C)c1 [III-3, 3-(2,5-dimethyl-1H-pyrrol-1-yl)-N-{3-[(ethylcarbamoyl)methoxy]phenyl} thiophene-2-carboxamide] | B (B represents 15% to less than 20%) | B (B represents 30% to less than 35%) | B (B represents 10% to less than 14%) | D (D represents 50% or greater)
Cc1cc(NC(=O)CC23CC4CC(CC(C4)C2)C3)cc(-c2nc3ncccc3o2)c1O [III-4, 2-(1-adamantyl)-N-(4-hydroxy-3-methy1-5-[1,3]oxazolo[4,5-b]pyridin-2-ylphenyl)acetamide] | C (C represents 20% to less than 25%) | B (B represents 30% to less than 35%) | C (C represents 14% to less than 18%) | B (B represents 30% to less than 40%)
O=C(Cc1c[nH]c2ccccc12)Nc1cccc(-c2ccc3nnc(-c4cccnc4)n3n2)c1 [III-5, 2-(1H-indol-3-yl)-N-{3-[3-(pyridin-3-yl)-[1,2,4]triazolo[4,3-b]pyridazin-6-yl]phenyl}acetamide] | A (A represents 0% to less than 15%) | C (C represents 35% to less than 40%) | B (B represents 10% to less than 14%) | D (D represents 50% or greater)
O=C(Cc1ncc(C(F)(F)F)cc1Cl)Nc1ccc(N2CCOCC2)cc1 [III-6, 2-[3-chloro-5-(trifluoromethyl)pyridin-2-yl]-N-[4-(morpholin-4-yl)phenyl]acetamide] | B (B represents 15% to less than 20%) | B (B represents 30% to less than 35%) | C (C represents 14% to less than 18%) | B (B represents 30% to less than 40%)
O=C(Nc1cccc(NC(=O)c2ccc3[nH]c4c(c3c2)CCCC4)c1)c1ccccc1 [III-7, N-(3-benzamidophenyl)-2,3,4,9-tetrahydro-1H-carbazole-6-carboxamide] | D (D represents 25% or greater) | A (A represents 0% to less than 30%) | B (B represents 10% to less than 14%) | D (D represents 50% or greater)
Cc1nnc(-c2cccc(-c3noc(-c4c[nH]c(=O)c5ccccc45)n3)c2)[nH]1 [IV-2, 4-{3-[3-(5-methyl-4H-1,2,4-triazol-3-yl)phenyl]-1,2,4-oxadiazol-5-yl}-1,2-dihydroisoquinolin-1-one] | D (D represents 25% or greater) | B (B represents 30% to less than 35%) | B (B represents 10% to less than 14%) | D (D represents 50% or greater)
O=c1c2ccccc2c(-c2nc(-c3ccccc3Cl)no2)nn1-c1ccccc1 [IV-3, 4-[3-(2-chlorophenyl)-1,2,4-oxadiazol-5-yl]-2-phenyl-1,2-dihydrophthalazin-1-one] | C (C represents 20% to less than 25%) | B (B represents 30% to less than 35%) | C (C represents 14% to less than 18%) | B (B represents 30% to less than 40%)
O=C(NC1CCN(C(=O)c2cn(-c3ccc(F)cc3)nn2)CC1)c1cc2ccccc2[nH]1 [VI-1, N-{1-[1-(4-fluorophenyl)-1H-1,2,3-triazole-4-carbonyl]piperidin-4-yl}-1H-indole-2-carboxamide] | D (D represents 25% or greater) | B (B represents 30% to less than 35%) | C (C represents 14% to less than 18%) | B (B represents 30% to less than 40%)
O=C(NCCn1ccc2ccccc21)NC1CC(=O)N(c2cccc(F)c2)C1 (stereo not drawn) [VI-2, 3-[1-(3-fluorophenyl)-5-oxopyrrolidin-3-y1]-1-[2-(1H-indol-1-yl)ethyl]urea] | D (D represents 25% or greater) | B (B represents 30% to less than 35%) | D (D represents 18% or greater) | A (A represents 0% to less than 30%)

Source: patent US20260083701A1, “COMPOSITIONS, FORMULATIONS, AND METHODS FOR TREATMENT OF INFLAMMATORY CONDITIONS” (Oddity Labs, LLC, priority 2023, published 2026)
